# How the values were obtained:
# [1] = target: T1, catalytic domain (JH1, amino acids 826-1132) of human JAK2 (Homo sapiens, UniProt O60674); assay: JAK2 LanthaScreen JH1 Binding Assay; conditions: JAK2 JH1 (1.5 nM), 50 nM fluorescent JAK2-JH1 tracer, 2 hours at 25° C.; read-out: JH1 BIND
# T1 construct: catalytic domain (JH1, amino acids 826-1132) of human JAK2; FLAG (N); purchased Carna Biosciences 08-445-20N; host or cells: baculovirus expression system
# Method: Example A. JAK2 LanthaScreen JH1 Binding Assay
# JAK2 JH1 binding assay utilizes catalytic domain (JH1, amino acids 826-1132) of human JAK2 expressed as N-terminal FLAG-tagged, biotinylated protein in a baculovirus expression system (Carna Biosciences, Product #08-445-20N). The assay was conducted in black 384-well polystyrene plates in a final reaction volume of 20 μL. JAK2 JH1 (1.5 nM) was incubated with compounds (100 nL serially diluted in DMSO) in the presence of 50 nM fluorescent JAK2-JH1 tracer and 0.5 nM Streptavidin-Tb cryptate (Cisbio Part #610SATLB) in assay buffer (50 mM Tris, pH=7.5, 10 mM MgCl2, 0.01% Brij-35, 0.1% BSA, 1 mM EGTA, 5% Glycerol and 5 mM DTT). Non-specific binding was accessed in the presence of 2 mM ATP. After incubation for 2 hours at 25° C., LanthaScreen signals were read on a PHERAstar FS plate reader (BMG LABTECH). Data was analyzed with IDBS XLfit and GraphPad Prism 5.0 software using a four parameter dose response curve to determine IC50 for each compound.
# [2] = target: T2, pseudo-kinase domain (JH2, amino-acids 536-812 with 3 surface mutations W659A, W777A, F794H) of human Wild Type JAK2 (Homo sapiens, UniProt O60674, F794H/W659A/W777A); assay: JAK2 LanthaScreen JH2-WT Binding Assay; conditions: JAK2 JH2-WT (0.145 nM), 50 nM Fluorescent JAK2-JH2 Tracer, 1 hour at 25° C.; read-out: JH2 BIND WT
# T2 construct: pseudo-kinase domain (JH2, amino-acids 536-812 with 3 surface mutations W659A, W777A, F794H); His (C); Avi (biotinylated) (C); purchased BPS Bioscience 79463; host or cells: baculovirus expression system
# T2 sequence (O60674 536-812 W659A/W777A/F794H): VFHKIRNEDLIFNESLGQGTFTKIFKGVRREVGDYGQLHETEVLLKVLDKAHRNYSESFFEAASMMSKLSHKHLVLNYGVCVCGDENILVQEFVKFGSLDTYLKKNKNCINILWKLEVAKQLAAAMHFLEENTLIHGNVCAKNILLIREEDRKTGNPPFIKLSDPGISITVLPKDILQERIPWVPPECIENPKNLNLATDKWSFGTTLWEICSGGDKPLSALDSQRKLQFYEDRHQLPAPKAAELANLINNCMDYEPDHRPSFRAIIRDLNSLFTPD
# Method: Example B. JAK2 LanthaScreen JH2-WT Binding Assay
# (§1) JAK2 JH2-WT binding assay utilizes pseudo-kinase domain (JH2, amino-acids 536-812 with 3 surface mutations W659A, W777A, F794H) of human Wild Type JAK2 expressed as C-terminal His-Avi-tagged, biotinylated protein in a baculovirus expression system (BPS Bioscience, Catalog #79463). The assay was conducted in black 384-well polystyrene plates in a final reaction volume of 20 μL. JAK2 JH2-WT (0.145 nM) was incubated with compounds (100 nL serially diluted in DMSO) in the presence of 50 nM Fluorescent JAK2-JH2 Tracer (MedChem Express Catalog #HY-102055) and 0.25 nM Streptavidin-Tb cryptate (Cisbio Part #610SATLB) in assay buffer (50 mM Tris, pH=7.5, 10 mM MgCl2, 0.01% Brij-35, 0.1% BSA, 1 mM EGTA, 5% Glycerol and 5 mM DTT). Non-specific binding was accessed in the presence of 2 mM ATP. After incubation for 1 hour at 25° C., LanthaScreen signals were read on a PHERAstar FS plate reader (BMG LABTECH). Data was analyzed with IDBS XLfit and GraphPad Prism 5.0 software using a four parameter dose response curve to determine IC50 for each compound.
# [3] = target: T3, pseudo-kinase domain (JH2, amino-acids 536-812 with 3 surface mutations W659A, W777A, F794H) of human V617F mutant JAK2 (Homo sapiens, UniProt O60674, F794H/V617F/W659A/W777A); assay: JAK2 LanthaScreen JH2-V617F Binding Assay; conditions: JAK2 JH2-V617F (0.26 nM), 50 nM Fluorescent JAK2-JH2 Tracer, 1 hour at 25° C.; read-out: JH2 BIND V617F
# T3 construct: pseudo-kinase domain (JH2, amino-acids 536-812 with 3 surface mutations W659A, W777A, F794H); His (C); Avi (biotinylated) (C); purchased BPS Bioscience 79498; host or cells: baculovirus expression system
# T3 sequence (O60674 536-812 V617F/W659A/W777A/F794H): as the sequence (O60674 536-812 W659A/W777A/F794H) above, with V82F counted along it
# Method: Example C. JAK2 LanthaScreen JH2-V617F Binding Assay
# as §1, with “JH2-V617F” for “JH2-WT”, “V617F mutant” for “Wild Type”, “#79498).” for “#79463).”, “JH2-V617F (0.26” for “JH2-WT (0.145”
# T1 sequence (O60674 826-1132): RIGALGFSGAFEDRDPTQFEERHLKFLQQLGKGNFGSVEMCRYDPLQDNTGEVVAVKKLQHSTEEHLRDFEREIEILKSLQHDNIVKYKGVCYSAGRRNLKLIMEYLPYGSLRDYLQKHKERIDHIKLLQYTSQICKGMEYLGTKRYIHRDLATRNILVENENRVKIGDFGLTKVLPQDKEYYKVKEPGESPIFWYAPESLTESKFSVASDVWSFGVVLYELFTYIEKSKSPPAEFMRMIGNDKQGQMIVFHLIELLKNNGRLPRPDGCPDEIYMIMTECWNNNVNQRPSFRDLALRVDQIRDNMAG
Compound,IC50 [1],IC50 [2],IC50 [3]
"CCN1CCN(c2ccc(-c3cc4c(ncc5c4n(CC(=O)N4CCCCC4)c(=O)n5C)[nH]3)cc2)CC1 [Example 17, 7-(4-(4-Ethylpiperazin-1-yl)phenyl)-3-methyl-1-(2-oxo-2-(piperidin-1-yl)ethyl)-3,6-dihydroimidazo[4,5-d]pyrrolo[2,3-b]pyridin-2(1H)-one]",> 1000 nM,> 1000 nM,> 1000 nM
"CC(C)n1c(=O)n(C)c2cnc3[nH]c(-c4ccc(CN5CCC(S(C)(=O)=O)CC5)cc4)c(-c4ccccc4)c3c21 [Example 18, 1-Isopropyl-3-methyl-7-(4-((4-(methylsulfonyl)piperidin-1-yl)methyl)phenyl)-8-phenyl-3,6-dihydroimidazo[4,5-d]pyrrolo[2,3-b]pyridin-2(1H)-one]",100 to 500 nM,≤ 10 nM,≤ 10 nM
"COc1ccc(-c2c(-c3ccc(CN4CCC(S(C)(=O)=O)CC4)cc3)[nH]c3ncc4c(c23)n(C2CCCCC2)c(=O)n4C)cc1 [Example 19, 1-Cyclohexyl-8-(4-methoxyphenyl)-3-methyl-7-(4-((4-(methylsulfonyl)piperidin-1-yl)methyl)phenyl)-3,6-dihydroimidazo [4,5-d]pyrrolo[2,3-b]pyridin-2(1H)-one]",10 to 100 nM,≤ 10 nM,≤ 10 nM
"COc1ccc(-c2c(-c3ccc(CN4CCC(S(C)(=O)=O)CC4)cc3)[nH]c3ncc4c(c23)n(CC(C)C)c(=O)n4C)cc1 [Example 20, 1-Isobutyl-8-(4-methoxyphenyl)-3-methyl-7-(4-((4-(methylsulfonyl)piperidin-1-yl)methyl)phenyl)-3,6-dihydroimidazo [4,5-d]pyrrolo[2,3-b]pyridin-2(1H)-one]",100 to 500 nM,≤ 10 nM,≤ 10 nM
"COc1ccc(-c2c(-c3ccc(CN4CCC(S(C)(=O)=O)CC4)cc3)[nH]c3ncc4c(c23)n(C2CCC2)c(=O)n4C)cc1 [Example 21, 1-Cyclobutyl-8-(4-methoxyphenyl)-3-methyl-7-(4-((4-(methylsulfonyl)piperidin-1-yl)methyl)phenyl)-3,6-dihydroimidazo [4,5-d]pyrrolo [2,3-b]pyridin-2(1H)-one]",100 to 500 nM,≤ 10 nM,≤ 10 nM
"COc1ccc(-c2c(-c3ccc(CN4CCC(S(C)(=O)=O)CC4)cc3)[nH]c3ncc4c(c23)n(-c2ccccc2)c(=O)n4C)cc1 [Example 22, 8-(4-Methoxyphenyl)-3-methyl-7-(4-((4-(methylsulfonyl)piperidin-1-yl)methyl)phenyl)-1-phenyl-3,6-dihydroimidazo[4,5-d]pyrrolo[2,3-b]pyridin-2(1H)-one]",100 to 500 nM,10 to 100 nM,10 to 100 nM
"COc1ccc(-c2c(-c3ccc(CN4CCC(S(C)(=O)=O)CC4)cc3)[nH]c3ncc4c([nH]c(=O)n4C)c23)cc1 [Example 23, 8-(4-Methoxyphenyl)-3-methyl-7-(4-((4-(methylsulfonyl)piperidin-1-yl)methyl)phenyl)-3,6-dihydroimidazo[4,5-d]pyrrolo[2,3-b]pyridin-2(1H)-one]",100 to 500 nM,10 to 100 nM,100 to 500 nM
"COC1CC=C(c2c(-c3ccc(CN4CCC(S(C)(=O)=O)CC4)cc3)[nH]c3ncc4c(c23)n(C(C)(C)C)c(=O)n4C)CC1 (stereo not drawn) [Example 24, 1-(tert-Butyl)-8-(4-methoxycyclohex-1-en-1-yl)-3-methyl-7-(4-((4-(methylsulfonyl)piperidin-1-yl)methyl)phenyl)-3,6-dihydroimidazo[4,5-d]pyrrolo[2,3-b] pyridin-2(1H)-one]",500 to 1000 nM,≤ 10 nM,≤ 10 nM
"CC(C)n1c(=O)n(C)c2cnc3[nH]c(-c4ccc(CN5CCC(S(C)(=O)=O)CC5)cc4)c(-c4ccc(C#N)cc4)c3c21 [Example 25, 4-(1-Isopropyl-3-methyl-7-(4-((4-(methylsulfonyl)piperidin-1-yl)methyl)phenyl)-2-oxo-1,2,3,6-tetrahydroimidazo [4,5-d]pyrrolo[2,3-b]pyridin-8-yl)benzonitrile]",500 to 1000 nM,≤ 10 nM,≤ 10 nM
"CC(C)n1c(=O)n(C)c2cnc3[nH]c(-c4ccc(CN5CCC(S(C)(=O)=O)CC5)cc4)c(-c4ccc(C5(C#N)CC5)cc4)c3c21 [Example 26, 1-(4-(1-Isopropyl-3-methyl-7-(4-((4-(methylsulfonyl)piperidin-1-yl)methyl)phenyl)-2-oxo-1,2,3,6-tetrahydroimidazo [4,5-d]pyrrolo[2,3-b]pyridin-8-yl)phenyl) cyclopropane-1-carbonitrile]",> 1000 nM,≤ 10 nM,≤ 10 nM
"CC(C)n1c(=O)n(C)c2cnc3[nH]c(-c4ccc(CN5CCC(S(C)(=O)=O)CC5)cc4)c(-c4cnn(Cc5ccc(C(=O)O)cc5)c4)c3c21 [Example 27, 4-((4-(1-Isopropyl-3-methyl-7-(4-((4-(methylsulfonyl)piperidin-1-yl)methyl)phenyl)-2-oxo-1,2,3,6-tetrahydroimidazo [4,5-d]pyrrolo[2,3-b]pyridin-8-yl)-1H-pyrazol-1-yl)methyl)benzoic acid]",100 to 500 nM,≤ 10 nM,≤ 10 nM
"Cn1c(=O)n(C2CCCC2)c2c3c(-c4ccccc4)c(-c4ccc(CN5CCC(S(C)(=O)=O)CC5)cc4)[nH]c3ncc21 [Example 28, 1-Cyclopentyl-3-methyl-7-(4-((4-(methylsulfonyl)piperidin-1-yl)methyl)phenyl)-8-phenyl-3,6-dihydroimidazo[4,5-d]pyrrolo[2,3-b]pyridin-2(1H)-one]",100 to 500 nM,≤ 10 nM,≤ 10 nM
"Cn1c(=O)n(C2CCCC2)c2c3c(-c4ccccc4)c(-c4cnn(CS(C)(=O)=O)c4)[nH]c3ncc21 [Example 29, 1-Cyclopentyl-3-methyl-7-(1-((methylsulfonyl)methyl)-1H-pyrazol-4-yl)-8-phenyl-3,6-dihydroimidazo[4,5-d]pyrrolo[2,3-b]pyridin-2(1H)-one]",100 to 500 nM,≤ 10 nM,≤ 10 nM
"Cn1c(=O)n(C2CCCC2)c2c3c(-c4ccc(C5(C#N)CC5)cc4)c(-c4ccc(CN5CCC(S(C)(=O)=O)CC5)cc4)[nH]c3ncc21 [Example 30, 1-(4-(1-Cyclopentyl-3-methyl-7-(4-((4-(methylsulfonyl)piperidin-1-yl)methyl)phenyl)-2-oxo-1,2,3,6-tetrahydroimidazo [4,5-d]pyrrolo[2,3-b]pyridin-8-yl)phenyl)cyclo-propane-1-carbonitrile]",100 to 500 nM,≤ 10 nM,≤ 10 nM
